Data taken from patent US20060256599A1, “Database of electronically profiled cells and methods for generating and using same” (priority 2005, published 2006).

Legend:
cells in culture = test: effect of chemotherapeutic agents on cellular conductance and cell number; format: cell-based; conditions: 100 ng in each ml of media, DMEM + 10% serum, FIG. 6
Description: FIG. 6 depicts the effect of chemotherapeutic agents on cellular conductance and cell number.
Cells were seeding at a density of 1.0E+5 in 2 ml of DMEM with 10% FBS. The cells were grown and cultured for 24 hours. On day 2 eight wells were counted in a Coulter type counter after harvesting by trypsinization for initial cell count. Additional wells containing cells were examined to confirm cell viability and health by phase microscopy. The media as then aspirated and wells were filled with DMEM+10% serum (control) or DMEM+10% serum containing various concentrations of chemotherapeutic agent (e.g. Methotrexate.). The dose was 100 ng in each ml of media.

[1] = system: rat primary neonatal explants; conditions: in vitro; from King et al., Genentech paper; cited from earlier work

Row | Compound | cell number (cells in culture; Coulter type counter) | cell conductance (cells in culture) | metabolic activity (heart beats) increased [1]
1 | CN(Cc1cnc2nc(N)nc(N)c2n1)c1ccc(C(=O)N[C@@H](CCC(=O)O)C(=O)O)cc1 [Methotrexate] | decreased cell number | decrease in cell conductance | 
2 | CNC[C@H](O)c1cccc(O)c1 [PE, Phenylephrine] |  |  | 84%
3 | leukemia inhibitory factor [LIF] |  |  | 125%
4 | prostaglandin F2alpha [PGF] |  |  | 54%
